# In article PMC4649089, “Urea Unfolding Study of E. coli Alanyl-tRNA Synthetase and Its Monomeric Variants Proves the Role of C-Terminal Domain in Stability” (Journal of Amino Acids, 2015):
# T1: N461 alaRS (Escherichia coli, UniProt P00957)
# T1 construct: gene alaS; N-terminal residues 1-461 (aminoacylation and tRNA recognition domain), N-terminal His tag (pET28a), expressed in E. coli BL21(DE3), monomer, 50710 Da
# T1 sequence (P00957 2-462): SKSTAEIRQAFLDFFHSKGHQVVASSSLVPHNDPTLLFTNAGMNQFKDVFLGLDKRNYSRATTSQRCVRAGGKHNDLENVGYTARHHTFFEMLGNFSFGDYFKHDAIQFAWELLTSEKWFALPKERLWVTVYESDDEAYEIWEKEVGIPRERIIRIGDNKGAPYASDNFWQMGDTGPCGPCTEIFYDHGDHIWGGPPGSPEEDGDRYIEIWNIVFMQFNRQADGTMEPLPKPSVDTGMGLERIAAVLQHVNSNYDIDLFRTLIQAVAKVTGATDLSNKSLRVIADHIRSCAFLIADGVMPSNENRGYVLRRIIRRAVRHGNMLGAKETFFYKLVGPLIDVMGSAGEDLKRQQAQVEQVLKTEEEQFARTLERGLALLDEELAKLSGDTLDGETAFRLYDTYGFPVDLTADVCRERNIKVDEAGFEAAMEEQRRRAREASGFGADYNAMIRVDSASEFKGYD
# T2: N700 alaRS (Escherichia coli, UniProt P00957)
# T2 construct: gene alaS; N-terminal residues 1-700, N-terminal His tag (pET20a), expressed in E. coli BL21(DE3), monomer, 77000 Da
# T2 sequence (P00957 2-701): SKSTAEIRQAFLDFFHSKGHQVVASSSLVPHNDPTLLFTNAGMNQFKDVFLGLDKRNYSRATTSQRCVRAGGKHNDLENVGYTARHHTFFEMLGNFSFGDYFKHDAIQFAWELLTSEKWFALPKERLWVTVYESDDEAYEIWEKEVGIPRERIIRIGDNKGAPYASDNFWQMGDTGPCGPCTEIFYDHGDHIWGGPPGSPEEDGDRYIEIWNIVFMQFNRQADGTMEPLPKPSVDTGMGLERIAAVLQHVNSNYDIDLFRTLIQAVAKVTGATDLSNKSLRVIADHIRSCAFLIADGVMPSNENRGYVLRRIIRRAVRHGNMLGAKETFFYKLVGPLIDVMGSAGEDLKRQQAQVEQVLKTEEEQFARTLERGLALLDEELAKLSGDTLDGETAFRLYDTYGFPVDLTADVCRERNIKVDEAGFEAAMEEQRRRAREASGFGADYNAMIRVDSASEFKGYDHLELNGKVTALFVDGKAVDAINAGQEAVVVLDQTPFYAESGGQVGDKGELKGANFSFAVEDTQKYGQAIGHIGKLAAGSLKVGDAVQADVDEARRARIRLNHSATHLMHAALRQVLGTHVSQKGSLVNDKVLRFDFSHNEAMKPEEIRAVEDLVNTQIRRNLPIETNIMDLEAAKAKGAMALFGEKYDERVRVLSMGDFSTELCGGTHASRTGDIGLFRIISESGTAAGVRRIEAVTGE
# T3: alaRS (Escherichia coli, UniProt P00957, G675D)
# T3 construct: gene alaS; full length, 875 residues, N-terminal His tag (pET28a), expressed in E. coli BL21(DE3), homodimer, 192500 Da
# T3 sequence (P00957 2-876 G675D): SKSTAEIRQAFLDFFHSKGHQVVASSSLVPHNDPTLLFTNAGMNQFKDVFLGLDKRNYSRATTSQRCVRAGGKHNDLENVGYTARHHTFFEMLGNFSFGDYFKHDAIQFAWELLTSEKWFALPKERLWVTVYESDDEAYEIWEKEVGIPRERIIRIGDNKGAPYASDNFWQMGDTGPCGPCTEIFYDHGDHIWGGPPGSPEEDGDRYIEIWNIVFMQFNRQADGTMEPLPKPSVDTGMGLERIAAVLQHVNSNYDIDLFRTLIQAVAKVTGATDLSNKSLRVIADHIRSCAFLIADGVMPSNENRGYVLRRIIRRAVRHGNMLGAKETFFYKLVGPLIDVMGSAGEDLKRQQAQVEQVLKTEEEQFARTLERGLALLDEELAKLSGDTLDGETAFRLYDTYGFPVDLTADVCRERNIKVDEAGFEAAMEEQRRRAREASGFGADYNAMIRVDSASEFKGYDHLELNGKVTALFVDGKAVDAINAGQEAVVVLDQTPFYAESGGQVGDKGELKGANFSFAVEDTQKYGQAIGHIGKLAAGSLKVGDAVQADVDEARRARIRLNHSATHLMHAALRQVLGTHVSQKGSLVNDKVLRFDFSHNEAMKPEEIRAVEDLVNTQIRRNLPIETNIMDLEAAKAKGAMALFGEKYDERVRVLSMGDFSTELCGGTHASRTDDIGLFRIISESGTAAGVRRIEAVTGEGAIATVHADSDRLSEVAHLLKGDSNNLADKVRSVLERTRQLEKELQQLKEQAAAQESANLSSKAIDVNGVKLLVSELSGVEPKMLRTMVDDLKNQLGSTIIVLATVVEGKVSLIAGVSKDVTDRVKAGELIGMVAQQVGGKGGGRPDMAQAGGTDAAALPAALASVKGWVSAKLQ
# T4: WT-alaRS (Escherichia coli, UniProt P00957)
# T4 construct: gene alaS; full length, 875 residues, N-terminal His tag (pET28a), expressed in E. coli BL21(DE3), homodimer, 192500 Da
# T4 sequence (P00957 2-876): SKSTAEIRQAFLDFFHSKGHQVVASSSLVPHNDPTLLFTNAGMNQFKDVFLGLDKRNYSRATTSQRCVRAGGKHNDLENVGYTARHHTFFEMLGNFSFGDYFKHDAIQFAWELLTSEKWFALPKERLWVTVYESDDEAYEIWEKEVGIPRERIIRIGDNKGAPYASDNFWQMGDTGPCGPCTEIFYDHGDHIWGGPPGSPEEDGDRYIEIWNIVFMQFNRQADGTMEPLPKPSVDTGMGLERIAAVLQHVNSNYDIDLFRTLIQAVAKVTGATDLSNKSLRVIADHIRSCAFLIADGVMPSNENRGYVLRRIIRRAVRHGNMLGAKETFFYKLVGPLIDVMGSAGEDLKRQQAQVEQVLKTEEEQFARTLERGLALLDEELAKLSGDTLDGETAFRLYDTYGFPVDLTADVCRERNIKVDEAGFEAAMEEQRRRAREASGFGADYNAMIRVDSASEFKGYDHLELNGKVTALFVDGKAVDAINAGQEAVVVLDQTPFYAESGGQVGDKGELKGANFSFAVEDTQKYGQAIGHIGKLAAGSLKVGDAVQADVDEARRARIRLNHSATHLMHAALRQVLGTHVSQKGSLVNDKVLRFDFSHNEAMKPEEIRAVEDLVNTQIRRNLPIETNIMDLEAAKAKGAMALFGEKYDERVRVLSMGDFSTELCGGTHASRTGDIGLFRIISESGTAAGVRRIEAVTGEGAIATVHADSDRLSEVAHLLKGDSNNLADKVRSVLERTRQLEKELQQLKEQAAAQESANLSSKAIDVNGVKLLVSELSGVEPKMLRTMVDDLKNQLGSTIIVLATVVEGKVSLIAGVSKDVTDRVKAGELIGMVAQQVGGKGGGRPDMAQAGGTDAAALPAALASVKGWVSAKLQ
# B1: wild type E. coli alanyl-tRNA synthetase (enzyme, UniProt P00957 1-876, looked up)
# chain: MSKSTAEIRQAFLDFFHSKGHQVVASSSLVPHNDPTLLFTNAGMNQFKDVFLGLDKRNYSRATTSQRCVRAGGKHNDLENVGYTARHHTFFEMLGNFSFGDYFKHDAIQFAWELLTSEKWFALPKERLWVTVYESDDEAYEIWEKEVGIPRERIIRIGDNKGAPYASDNFWQMGDTGPCGPCTEIFYDHGDHIWGGPPGSPEEDGDRYIEIWNIVFMQFNRQADGTMEPLPKPSVDTGMGLERIAAVLQHVNSNYDIDLFRTLIQAVAKVTGATDLSNKSLRVIADHIRSCAFLIADGVMPSNENRGYVLRRIIRRAVRHGNMLGAKETFFYKLVGPLIDVMGSAGEDLKRQQAQVEQVLKTEEEQFARTLERGLALLDEELAKLSGDTLDGETAFRLYDTYGFPVDLTADVCRERNIKVDEAGFEAAMEEQRRRAREASGFGADYNAMIRVDSASEFKGYDHLELNGKVTALFVDGKAVDAINAGQEAVVVLDQTPFYAESGGQVGDKGELKGANFSFAVEDTQKYGQAIGHIGKLAAGSLKVGDAVQADVDEARRARIRLNHSATHLMHAALRQVLGTHVSQKGSLVNDKVLRFDFSHNEAMKPEEIRAVEDLVNTQIRRNLPIETNIMDLEAAKAKGAMALFGEKYDERVRVLSMGDFSTELCGGTHASRTGDIGLFRIISESGTAAGVRRIEAVTGEGAIATVHADSDRLSEVAHLLKGDSNNLADKVRSVLERTRQLEKELQQLKEQAAAQESANLSSKAIDVNGVKLLVSELSGVEPKMLRTMVDDLKNQLGSTIIVLATVVEGKVSLIAGVSKDVTDRVKAGELIGMVAQQVGGKGGGRPDMAQAGGTDAAALPAALASVKGWVSAKLQ
# notes: alanyl-tRNA synthetase (alaRS), E. coli, full length, printed as 875 residues per subunit; Clone was a gift from Paul Schimmel; homodimer by sedimentation equilibrium and velocity; also called WT-alaRS; WT; source: E. coli BL21 (DE3), pET28a, purified (Ni-NTA agarose)
# Legend:
# [1] = target: T1, N461 alaRS; experiment: ANS fluorescence titration; format: binding; settings: read-out: dissociation constant
# [2] = target: T2, N700 alaRS; experiment: ANS fluorescence titration; format: binding; settings: read-out: dissociation constant
# [3] = target: T3, alaRS; experiment: ANS fluorescence titration; format: binding; settings: read-out: dissociation constant
# [4] = target: T4, WT-alaRS; experiment: ANS fluorescence titration; format: binding; settings: read-out: dissociation constant
# [5] = target: the molecule itself; experiment: AUC; sedimentation equilibrium, loading concentrations 5 μM, 10 μM and 20 μM (monomer), 20°C, 100 mM Tris-HCl pH 8.0, global single-species fit in SEDPHAT
Molecule,Kd [1] [nM],Kd [2] [nM],Kd [3] [nM],Kd [4] [nM],stoichiometry N [5]
O=S(=O)(O)c1cccc2cccc(Nc3ccccc3)c12 [ANS],1000 to 5000,1000 to 5000,1000 to 5000,1000 to 5000,
B1,,,,,2
